Reference: PubChem BioAssay (NCI)
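Dose response: 5 concentrations. Exposure: 48 h. Format: 96-well plates. Endpoint: linear interpolation; highest concentration if not reached. GI50: concentration for 50% inhibition of growth. At the TGI there is no net growth.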

Tests used:
Assay in all cases: NCI tumour cell line growth inhibition, 48 h
NCI-H522 lung = test system: NCI-H522 lung
ACHN renal = test system: ACHN renal
CCRF-CEM leukemia = test system: CCRF-CEM leukemia
RPMI-8226 leukemia = test system: RPMI-8226 leukemia
HOP-62 NSCLC = test system: HOP-62 NSCLC
UACC-257 melanoma = test system: UACC-257 melanoma
HOP-92 NSCLC = test system: HOP-92 NSCLC
EKVX NSCLC = test system: EKVX NSCLC
HS 578T breast = test system: HS 578T breast
LOX IMVI melanoma = test system: LOX IMVI melanoma
NCI-H460 lung = test system: NCI-H460 lung
SK-MEL-28 melanoma = test system: SK-MEL-28 melanoma
MALME-3M melanoma = test system: MALME-3M melanoma
SF-268 CNS = test system: SF-268 CNS
NCI/ADR-RES ovarian = test system: NCI/ADR-RES ovarian
HL-60(TB) leukemia = test system: HL-60(TB) leukemia
SF-539 CNS = test system: SF-539 CNS
OVCAR-4 ovarian = test system: OVCAR-4 ovarian
IGROV1 ovarian = test system: IGROV1 ovarian
UACC-62 melanoma = test system: UACC-62 melanoma
UO-31 renal = test system: UO-31 renal
K-562 leukemia = test system: K-562 leukemia
NCI-H226 lung = test system: NCI-H226 lung
MOLT-4 leukemia = test system: MOLT-4 leukemia
T-47D breast = test system: T-47D breast
786-0 renal = test system: 786-0 renal
A498 renal = test system: A498 renal
OVCAR-3 ovarian = test system: OVCAR-3 ovarian
SK-MEL-5 melanoma = test system: SK-MEL-5 melanoma
SNB-75 CNS = test system: SNB-75 CNS
U251 CNS = test system: U251 CNS
MDA-MB-435 = test system: MDA-MB-435
DU-145 prostate = test system: DU-145 prostate
MCF7 breast = test system: MCF7 breast
NCI-H23 lung = test system: NCI-H23 lung
MDA-MB-231 breast = test system: MDA-MB-231 breast
HCC-2998 colon = test system: HCC-2998 colon
OVCAR-5 ovarian = test system: OVCAR-5 ovarian
COLO 205 colon = test system: COLO 205 colon
SF-295 CNS = test system: SF-295 CNS
SNB-19 CNS = test system: SNB-19 CNS
M14 melanoma = test system: M14 melanoma
SR leukemia = test system: SR leukemia
SK-OV-3 ovarian = test system: SK-OV-3 ovarian
TK-10 renal = test system: TK-10 renal
A549 NSCLC = test system: A549 NSCLC
SW-620 colon = test system: SW-620 colon
CAKI-1 renal = test system: CAKI-1 renal
BT-549 breast = test system: BT-549 breast
PC-3 prostate = test system: PC-3 prostate
KM12 colon = test system: KM12 colon
HCT-15 colon = test system: HCT-15 colon
HT29 colon = test system: HT29 colon
SN12C renal = test system: SN12C renal
OVCAR-8 ovarian = test system: OVCAR-8 ovarian
HCT-116 colon = test system: HCT-116 colon
SK-MEL-2 melanoma = test system: SK-MEL-2 melanoma
RXF 393 renal = test system: RXF 393 renal

## CC(Nc1c(C#N)cnc2ccc(-c3cncc(-c4n[nH]c(=O)o4)c3)cc12)c1ccccc1 (stereo not drawn)
NCI-H522 lung
  GI50: 3.31 µM
  TGI: 16.2 µM
ACHN renal
  GI50: 3.57 µM
  TGI: 13.3 µM
CCRF-CEM leukemia
  GI50: 3.7 µM
  TGI: > 100 µM
RPMI-8226 leukemia
  GI50: 2.52 µM
  TGI: > 100 µM
HOP-62 NSCLC
  GI50: 3.51 µM
  TGI: 24.7 µM
UACC-257 melanoma
  GI50: 4.48 µM
  TGI: 22.5 µM
HOP-92 NSCLC
  GI50: 2 µM
  TGI: 7.27 µM
EKVX NSCLC
  GI50: 2.46 µM
  TGI: 8.59 µM
HS 578T breast
  GI50: 1.9 µM
  TGI: 5.47 µM
LOX IMVI melanoma
  GI50: 1.94 µM
  TGI: 8.44 µM
NCI-H460 lung
  GI50: 3.2 µM
  TGI: 14.9 µM
SK-MEL-28 melanoma
  GI50: 3.4 µM
  TGI: 14.7 µM
MALME-3M melanoma
  GI50: 2.17 µM
  TGI: 9.36 µM
SF-268 CNS
  GI50: 2.62 µM
  TGI: 9.88 µM
NCI/ADR-RES ovarian
  GI50: 20.2 µM
  TGI: 81.4 µM
HL-60(TB) leukemia
  GI50: 8.19 µM
  TGI: 72.5 µM
SF-539 CNS
  GI50: 2.53 µM
  TGI: 10.3 µM
OVCAR-4 ovarian
  GI50: 2.84 µM
  TGI: 24.3 µM
IGROV1 ovarian
  GI50: 1.55 µM
  TGI: 4.77 µM
UACC-62 melanoma
  GI50: 1.96 µM
  TGI: 4.87 µM
UO-31 renal
  GI50: 1.77 µM
  TGI: 8.79 µM
K-562 leukemia
  GI50: 4.42 µM
  TGI: > 100 µM
NCI-H226 lung
  GI50: 2.56 µM
  TGI: 13.8 µM
MOLT-4 leukemia
  GI50: 3.02 µM
  TGI: 76 µM
T-47D breast
  GI50: 2.36 µM
  TGI: > 100 µM
786-0 renal
  GI50: 2.44 µM
  TGI: 24.2 µM
A498 renal
  GI50: 1.77 µM
  TGI: 5.95 µM
OVCAR-3 ovarian
  GI50: 1.92 µM
  TGI: 5.47 µM
SK-MEL-5 melanoma
  GI50: 1.68 µM
  TGI: 3.07 µM
SNB-75 CNS
  GI50: 2.15 µM
  TGI: 7.76 µM
U251 CNS
  GI50: 2.36 µM
  TGI: 14.4 µM
MDA-MB-435
  GI50: 3.59 µM
  TGI: 29.5 µM
DU-145 prostate
  GI50: 2.98 µM
  TGI: 15.6 µM
MCF7 breast
  GI50: 2.64 µM
  TGI: 15.8 µM
NCI-H23 lung
  GI50: 3.12 µM
  TGI: 14.5 µM
MDA-MB-231 breast
  GI50: 2.15 µM
  TGI: 9.65 µM
HCC-2998 colon
  GI50: 3.48 µM
  TGI: 14.1 µM
OVCAR-5 ovarian
  GI50: 3.6 µM
  TGI: 22.9 µM
COLO 205 colon
  GI50: 2.85 µM
  TGI: 14.8 µM
SF-295 CNS
  GI50: 2.64 µM
  TGI: 10.3 µM
SNB-19 CNS
  GI50: 2.77 µM
  TGI: 14.6 µM
M14 melanoma
  GI50: 3.87 µM
  TGI: 33.4 µM
SR leukemia
  GI50: 2.79 µM
  TGI: 46.8 µM
SK-OV-3 ovarian
  GI50: 4.51 µM
  TGI: 28.3 µM
TK-10 renal
  GI50: 3.83 µM
  TGI: 44.6 µM
A549 NSCLC
  GI50: 3.64 µM
  TGI: 29.2 µM
SW-620 colon
  GI50: 3.39 µM
  TGI: 18.9 µM
CAKI-1 renal
  GI50: 3.69 µM
  TGI: 34.5 µM
BT-549 breast
  GI50: 1.35 µM
  TGI: 5.48 µM
PC-3 prostate
  GI50: 3.25 µM
  TGI: > 100 µM
KM12 colon
  GI50: 3.65 µM
  TGI: 17.2 µM
HCT-15 colon
  GI50: 3.06 µM
  TGI: 13.2 µM
HT29 colon
  GI50: 3.66 µM
  TGI: 31.1 µM
SN12C renal
  GI50: 2.73 µM
  TGI: 13.7 µM
OVCAR-8 ovarian
  GI50: 3.63 µM
  TGI: 32.9 µM
HCT-116 colon
  GI50: 2.65 µM
  TGI: 8.75 µM
SK-MEL-2 melanoma
  GI50: 2.24 µM
  TGI: 6.66 µM

## C=C(C=O)[C@@H]1CC[C@]2(C)[C@H](C(=O)C=C3[C@H]4C[C@](C)(C(=O)OC)CC[C@]4(C)CC[C@]32C)[C@@]1(C)CCC#N
CCRF-CEM leukemia
  GI50: 0.483 µM
  TGI: > 100 µM
RPMI-8226 leukemia
  GI50: 0.942 µM
  TGI: 5.04 µM
LOX IMVI melanoma
  GI50: 1.34 µM
  TGI: 2.7 µM
NCI/ADR-RES ovarian
  GI50: 1.88 µM
  TGI: 5.92 µM
HL-60(TB) leukemia
  GI50: 1.72 µM
  TGI: 5.93 µM
K-562 leukemia
  GI50: 1.81 µM
  TGI: > 100 µM
MOLT-4 leukemia
  GI50: 0.985 µM
  TGI: > 100 µM
T-47D breast
  GI50: 0.899 µM
  TGI: > 100 µM
SR leukemia
  GI50: 1.02 µM
  TGI: > 100 µM
HT29 colon
  GI50: 1.12 µM
  TGI: 2.87 µM

## CSc1ccc(/C(=N/N=C(N)N)c2ccccc2)cc1
NCI-H522 lung
  GI50: 0.267 µM
  TGI: 0.996 µM
ACHN renal
  GI50: 0.695 µM
  TGI: 12.6 µM
CCRF-CEM leukemia
  GI50: 0.357 µM
  TGI: 19.2 µM
RPMI-8226 leukemia
  GI50: 0.391 µM
  TGI: 5.46 µM
HOP-62 NSCLC
  GI50: 0.481 µM
  TGI: 13 µM
UACC-257 melanoma
  GI50: 1.08 µM
  TGI: 11.8 µM
RXF 393 renal
  GI50: 0.282 µM
  TGI: 0.781 µM
HOP-92 NSCLC
  GI50: 0.409 µM
  TGI: 5.32 µM
EKVX NSCLC
  GI50: 0.779 µM
  TGI: 18.1 µM
HS 578T breast
  GI50: 0.359 µM
  TGI: 12.9 µM
LOX IMVI melanoma
  GI50: 0.52 µM
  TGI: 8.78 µM
NCI-H460 lung
  GI50: 0.361 µM
  TGI: 10.7 µM
SK-MEL-28 melanoma
  GI50: 1.07 µM
  TGI: 20 µM
MALME-3M melanoma
  GI50: 0.719 µM
  TGI: 13.5 µM
SF-268 CNS
  GI50: 1.29 µM
  TGI: 16.1 µM
NCI/ADR-RES ovarian
  GI50: 1.87 µM
  TGI: 11 µM
HL-60(TB) leukemia
  GI50: 0.274 µM
  TGI: 0.883 µM
SF-539 CNS
  GI50: 0.301 µM
  TGI: 0.931 µM
OVCAR-4 ovarian
  GI50: 5.29 µM
  TGI: 27.2 µM
IGROV1 ovarian
  GI50: 0.563 µM
  TGI: 12.2 µM
UACC-62 melanoma
  GI50: 0.473 µM
  TGI: 15 µM
UO-31 renal
  GI50: 0.747 µM
  TGI: 12.6 µM
K-562 leukemia
  GI50: 0.314 µM
  TGI: 11.5 µM
NCI-H226 lung
  GI50: 0.848 µM
  TGI: 18.6 µM
MOLT-4 leukemia
  GI50: 0.462 µM
  TGI: 13.4 µM
T-47D breast
  GI50: 0.535 µM
  TGI: 15.1 µM
786-0 renal
  GI50: 0.924 µM
  TGI: 15.8 µM
A498 renal
  GI50: 0.319 µM
  TGI: 1.66 µM
SK-MEL-5 melanoma
  GI50: 0.609 µM
  TGI: 2.85 µM
SNB-75 CNS
  GI50: 0.31 µM
  TGI: 3.27 µM
U251 CNS
  GI50: 0.393 µM
  TGI: 11.3 µM
MDA-MB-435
  GI50: 0.207 µM
  TGI: 0.478 µM
DU-145 prostate
  GI50: 0.471 µM
  TGI: 13.3 µM
MCF7 breast
  GI50: 0.357 µM
  TGI: 9.46 µM
NCI-H23 lung
  GI50: 0.591 µM
  TGI: 14.9 µM
MDA-MB-231 breast
  GI50: 0.498 µM
  TGI: 11.8 µM
HCC-2998 colon
  GI50: 0.371 µM
  TGI: 1.57 µM
OVCAR-5 ovarian
  GI50: 0.571 µM
  TGI: 15.4 µM
COLO 205 colon
  GI50: 0.235 µM
  TGI: 0.549 µM
SF-295 CNS
  GI50: 0.35 µM
  TGI: 11.5 µM
SNB-19 CNS
  GI50: 0.439 µM
  TGI: 14 µM
M14 melanoma
  GI50: 0.308 µM
  TGI: 1.42 µM
SR leukemia
  GI50: 0.247 µM
  TGI: 2.58 µM
SK-OV-3 ovarian
  GI50: 0.605 µM
  TGI: 15.1 µM
TK-10 renal
  GI50: 4.43 µM
  TGI: 20.4 µM
A549 NSCLC
  GI50: 0.984 µM
  TGI: 14.2 µM
SW-620 colon
  GI50: 0.435 µM
  TGI: 15.6 µM
CAKI-1 renal
  GI50: 0.423 µM
  TGI: 10.9 µM
BT-549 breast
  GI50: 0.65 µM
  TGI: 3.18 µM
PC-3 prostate
  GI50: 0.383 µM
  TGI: 10.9 µM
KM12 colon
  GI50: 0.451 µM
  TGI: 14.2 µM
HCT-15 colon
  GI50: 0.377 µM
  TGI: 12 µM
HT29 colon
  GI50: 0.301 µM
  TGI: 2.88 µM
SN12C renal
  GI50: 0.536 µM
  TGI: 12.5 µM
OVCAR-8 ovarian
  GI50: 0.422 µM
  TGI: 11.2 µM
HCT-116 colon
  GI50: 0.33 µM
  TGI: 11.4 µM
SK-MEL-2 melanoma
  GI50: 0.391 µM
  TGI: 12.7 µM
